Source: article PMC12566046, “Arylpiperazinyl-Benzocycloheptapyrrole-Carboxamides Endowed with Dual Anticancer and Antiviral Activities” (Molecules, 2025)
Where two headings read alike, the source gives them in different places.

What was measured:
[1] = in vitro; conditions: African green monkey
[2] = tested on: 786-0 (renal cancer cell line); assay: NCI-60 single-dose assay; assay type: cell-based, human; conditions: for inhibition at 10 µM: Homo sapiens, 786-0, read-out: growth inhibition (GI%) and cytotoxicity (negative values)
How it was run: (§1)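 NCI-60 one-dose format: each compound is tested at a single dose against human tumour lines for cytotoxic effect.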

[3] = tested on: RPMI-8226 (leukemia cell line); assay: NCI-60 single-dose assay; assay type: cell-based, human; conditions: for inhibition at 10 µM: Homo sapiens, RPMI-8226, read-out: growth inhibition (GI%) and cytotoxicity (negative values)
How it was run: as §1

[4] = tested on: NCI-H460 (non-small cell lung cancer cell line); assay: NCI-60 single-dose assay; assay type: cell-based, human; conditions: for inhibition at 10 µM: Homo sapiens, NCI-H460, read-out: growth inhibition (GI%) and cytotoxicity (negative values)
How it was run: as §1

[5] = tested on: HT29 (colon cancer cell line); assay: NCI-60 single-dose assay; assay type: cell-based, human; conditions: for growth inhibition (GI%) and cytotoxicity (negative values): human
How it was run: as §1

[6] = tested on: CAKI-1 (renal cancer cell line); assay: NCI-60 single-dose assay; assay type: cell-based, human; conditions: for inhibition at 10 µM: Homo sapiens, CAKI-1, read-out: growth inhibition (GI%) and cytotoxicity (negative values)
How it was run: as §1

[7] = tested on: UACC-257 (melanoma cell line); assay: NCI-60 single-dose assay; assay type: cell-based, human; conditions: for growth inhibition (GI%) and cytotoxicity (negative values): human
How it was run: as §1

[8] = tested on: SK-MEL-2 (melanoma cell line); assay: NCI-60 single-dose assay; assay type: cell-based, human; conditions: for inhibition at 10 µM: Homo sapiens, SK-MEL-2, read-out: growth inhibition (GI%) and cytotoxicity (negative values)
How it was run: as §1

[9] = tested on: NCI-H226 (non-small cell lung cancer cell line); assay: NCI-60 single-dose assay; assay type: cell-based, human; conditions: Homo sapiens, NCI-H226, read-out: growth inhibition (GI%) and cytotoxicity (negative values)
How it was run: as §1

[10] = tested on: MDA-MB-231/ATCC (breast cancer cell line); assay: NCI-60 single-dose assay; assay type: cell-based, human; conditions: Homo sapiens, MDA-MB-231, read-out: growth inhibition (GI%) and cytotoxicity (negative values)
How it was run: as §1

[11] = tested on: SK-MEL-5 (melanoma cell line); assay: NCI-60 single-dose assay; assay type: cell-based, human; conditions: human
How it was run: as §1

[12] = tested on: MOLT-4 (leukemia cell line); assay: NCI-60 single-dose assay; assay type: cell-based, human; conditions: Homo sapiens, MOLT-4, read-out: growth inhibition (GI%) and cytotoxicity (negative values)
How it was run: as §1

[13] = tested on: M14 (melanoma cell line); assay: NCI-60 single-dose assay; assay type: cell-based, human; conditions: human
How it was run: as §1

[14] = tested on: RXF 393 (renal cancer cell line); assay: NCI-60 single-dose assay; assay type: cell-based, human; conditions: Homo sapiens, RXF 393, read-out: growth inhibition (GI%) and cytotoxicity (negative values)
How it was run: as §1

[15] = tested on: SN12C (renal cancer cell line); assay: NCI-60 single-dose assay; assay type: cell-based, human; conditions: Homo sapiens, read-out: growth inhibition (GI%) and cytotoxicity (negative values)
How it was run: as §1

[16] = tested on: UO-31 (renal cancer cell line); assay: NCI-60 single-dose assay; assay type: cell-based, human; conditions: Homo sapiens, UO-31, read-out: growth inhibition (GI%) and cytotoxicity (negative values)
How it was run: as §1

[17] = tested on: MCF-7 (breast cancer cell line); assay: NCI-60 single-dose assay; assay type: cell-based, human; conditions: Homo sapiens, MCF7, read-out: growth inhibition (GI%) and cytotoxicity (negative values), MCF-7, 10^−5 M
How it was run: as §1

[18] = tested on: EKVX (non-small cell lung cancer cell line); assay: NCI-60 single-dose assay; assay type: cell-based, human; conditions: Homo sapiens, read-out: growth inhibition (GI%) and cytotoxicity (negative values)
How it was run: as §1

[19] = tested on: NCI-H23 (non-small cell lung cancer cell line); assay: NCI-60 single-dose assay; assay type: cell-based, human; conditions: Homo sapiens, NCI-H23, read-out: growth inhibition (GI%) and cytotoxicity (negative values)
How it was run: as §1

[20] = tested on: SK-MEL-28 (melanoma cell line); assay: NCI-60 single-dose assay; assay type: cell-based, human; conditions: for growth inhibition (GI%) and cytotoxicity (negative values): human
How it was run: as §1

[21] = tested on: NCI-H522 (non-small cell lung cancer cell line); assay: NCI-60 single-dose assay; assay type: cell-based, human; conditions: Homo sapiens, NCI-H522, read-out: growth inhibition (GI%) and cytotoxicity (negative values)
How it was run: as §1

[22] = tested on: MALME-3M (melanoma cell line); assay: NCI-60 single-dose assay; assay type: cell-based, human; conditions: for growth inhibition (GI%) and cytotoxicity (negative values): human
How it was run: as §1

[23] = tested on: ZIKV, strain Brazil/2016/INMI1; assay: ZIKV viral yield reduction assay on Huh-7 cells; assay type: cell-based, Zika virus; conditions: Zika virus
How it was run: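 Huh-7 cells infected with ZIKV at MOI 1 for 2 h at 37 °C, compounds added right after infection in duplicate at 50, 5 and 0.5 μM. Supernatants taken at 48 h and titrated by plaque assay on VERO E6 under carboxymethyl cellulose with crystal violet staining. % inhibition from PFU/mL versus DMSO-treated control; SI = CC50/EC50.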

[24] = preliminary screening (50, 5, 0.5 μM), Huh-7, read-out: ZIKV/Huh‐7 EC50

## CCN1CCC[C@H]1CNC(=O)c1[nH]c2c(c1Cl)CCCc1ccccc1-2 [Compound 1, (S)-3-Chloro-N-(1-ethyl-2-pyrrolidinylmethyl)-5,6-dihydro-4H-benzo[6,7]cyclohepta[1,2-b]pyrrol-2-carboxamide]
[1]
  CC50 at 24 h: 14.7 µM
[2]; human
  growth inhibition (GI%) and cytotoxicity (negative values): −22.61%
[3]
  inhibition at 10 µM: 98.6%
[4]; human
  growth inhibition (GI%) and cytotoxicity (negative values): −54.58%
[5]
  growth inhibition (GI%) and cytotoxicity (negative values): −32.25%
[6]; human
  growth inhibition (GI%) and cytotoxicity (negative values): −27.03%
[7]
  growth inhibition (GI%) and cytotoxicity (negative values): −55.18%
[8]
  inhibition at 10 µM: 85.8%
[9]
  inhibition at 10 µM: < 60%
[10]
  inhibition at 10 µM: 89%
[11]
  growth inhibition (GI%) and cytotoxicity (negative values): −88.03%
[12]
  inhibition at 10 µM: 96.2%
[13]
  growth inhibition (GI%) and cytotoxicity (negative values): −68.50%
[14]
  inhibition at 10 µM: 79.7%
[15]
  inhibition at 10 µM: < 60%
[16]
  inhibition at 10 µM: 83%
[17]
  inhibition at 10 µM: 87.2%
[18]
  inhibition at 10 µM: 68.8%
[19]
  inhibition at 10 µM: < 60%
[20]
  growth inhibition (GI%) and cytotoxicity (negative values): −85.77%
[21]
  inhibition at 10 µM: 73.5%
[22]
  growth inhibition (GI%) and cytotoxicity (negative values): −90.67%
[23]; [24]
  EC50: 2.07 µM

## O=C(NCCCN1CCN(Cc2ccccc2)CC1)c1c(Cl)[nH]c2c1CCCc1ccccc1-2 [Compound 20, N-(3-(4-Benzylpiperazin-1-yl)propyl)-2-chloro-1,4,5,6-tetrahydrobenzo[6,7]cyclohepta[1,2-b]pyrrole-3-carboxamide]
[1]
  CC50 at 24 h: 15.4 µM
[2]
  inhibition at 10 µM: 87%
[3]; human
  growth inhibition (GI%) and cytotoxicity (negative values): −1.74%
[4]
  inhibition at 10 µM: 83.1%
[5]; Homo sapiens, HT-29, read-out: growth inhibition (GI%) and cytotoxicity (negative values)
  inhibition at 10 µM: 94.7%
[6]
  inhibition at 10 µM: 84.7%
[7]
  growth inhibition (GI%) and cytotoxicity (negative values): −58.02%
[8]; human
  growth inhibition (GI%) and cytotoxicity (negative values): −52.93%
[9]
  inhibition at 10 µM: < 60%
[10]
  inhibition at 10 µM: 62.6%
[11]
  growth inhibition (GI%) and cytotoxicity (negative values): −89.68%
[12]
  inhibition at 10 µM: < 60%
[13]
  growth inhibition (GI%) and cytotoxicity (negative values): −69.37%
[14]
  inhibition at 10 µM: 78.2%
[15]
  inhibition at 10 µM: < 60%
[16]
  inhibition at 10 µM: 65.9%
[17]
  inhibition at 10 µM: 95.5%
[18]
  inhibition at 10 µM: 77.2%
[19]
  inhibition at 10 µM: 60.2%
[20]
  growth inhibition (GI%) and cytotoxicity (negative values): −88.58%
[21]
  inhibition at 10 µM: 92.2%
[22]
  growth inhibition (GI%) and cytotoxicity (negative values): −84.03%
[23]; [24]
  EC50: 4.74 µM

## COc1ccccc1N1CCN(CCNC(=O)c2[nH]c3c(c2Cl)CCCc2ccccc2-3)CC1 [Compound 5]
[1]
  CC50 at 24 h: 29.4 µM
[2]
  inhibition at 10 µM: 63%
[3]
  inhibition at 10 µM: < 60%
[4]
  inhibition at 10 µM: 79.2%
[5]
  growth inhibition (GI%) and cytotoxicity (negative values): −17.44%
[6]
  inhibition at 10 µM: 77.9%
[7]; Homo sapiens, UACC-257, read-out: growth inhibition (GI%) and cytotoxicity (negative values)
  inhibition at 10 µM: < 60%
[8]
  inhibition at 10 µM: < 60%
[9]
  inhibition at 10 µM: < 60%
[11]
  growth inhibition (GI%) and cytotoxicity (negative values): −62.59%
[12]
  inhibition at 10 µM: 93%
[13]
  growth inhibition (GI%) and cytotoxicity (negative values): −22.16%
[14]
  inhibition at 10 µM: 89.4%
[15]
  inhibition at 10 µM: 71.8%
[16]
  inhibition at 10 µM: 70%
[18]
  inhibition at 10 µM: 94.2%
[19]
  inhibition at 10 µM: 62.2%
[20]; Homo sapiens, SK-MEL-28, read-out: growth inhibition (GI%) and cytotoxicity (negative values)
  inhibition at 10 µM: < 60%
[21]
  inhibition at 10 µM: 85.5%
[22]; Homo sapiens, Malme-3M, read-out: growth inhibition (GI%) and cytotoxicity (negative values)
  inhibition at 10 µM: < 60%
[23]; Huh-7, read-out: ZIKV/Huh‐7 EC50
  EC50: 3.82 µM
